Where a name gives a salt, the structure may show the parent alone. Read-outs that look alike come from different tables or passages of the source.
Experiments:
calf eye = details: perfused calf eye, 15 mm Hg, 22° C.; cited from earlier work
monkey eye = details: perfused monkey eye, 15 mm Hg, 22° C.; cited from earlier work
eye [1] = assay: Ocular changes and side effects after anterior chamber perfusion in monkeys; type: in vivo, cynomologous monkeys
Text: (§1) Ethacrynic acid (sodium salt) was used to increase aqueous humor outflow in cynomologous monkeys, as described below. Ethacrynic acid can be purchased from Merck, Sharp, and Dome, and is described in U.S. Pat. No. 3,255,241, hereby incorporated by reference. Ethacrynic acid has the chemical formula [2,3-dichloro-4-(2-methylene-1-oxobutyl) phenoxy] acetic acid. Any suitable analogs described in U.S. Pat. No. 3,255,241 can also be used as described herein.
(§2) Each animal was randomly assigned one eye for the experimental and the other for its control perfusion. The animals were fasted the night before the experiment. They were anesthetized intramusclarly with Methohexital Sodium 15 mg/kg and Pentobarbital Sodium 35 mg/kg. Supplemental anesthesia as required was carried out with Pentobarbital 10 mg/kg/hour. Needles were placed through the cornea into the anterior chamber and a two-step constant pressure perfusion method was performed in order to determine aqueous humor outflow facility. The basic medium for perfusion was Dulbecco's phosphate buffered saline with added 5.5 mM glucose. A 10 microliter bolus of the experimental or control solution (that would produce the desired final concentration in the anterior chamber) was injected through a T shaped connector piece in the infusion line.
(§3) Each vial of ethacrynic acid contained ethacrynate sodium powder equivalent to 50 mg of ethacrynic acid. […] The powder was diluted with the above basic medium (Dulbecco's with added glucose) to yield the desired concentration. The solution was mixed at room temperature until dissolved, and the pH was determined (always 7.2) before use; the solution was filtered with a 0.2 micron filter (Nuclepore); this produced a solution which was stable for twenty four hours.
During perfusion experiments, a 10 microliter bolus injection was made using a Hamilton syringe. Since the monkey anterior chamber is approximately 200 microliters, our calculations were as follows. To achieve a final concentration of 0.5 mM ethacrynic acid, 10 microliters of 10 mM ethacrynic acid was infused.
Experiments were carried out using final ethacrynic acid concentrations in the aqueous humor of 0.1 mM to 0.5 mM. There were at least three animals and separate experiments carried out for each of the concentrations […], 0.25 mM, and […].

eye [2] = assay: Ocular side effects after topical instillation in rabbits; type: in vivo, Dutch-belted rabbits
aqueous humor outflow = assay: Two-step constant pressure perfusion, aqueous humor outflow facility in monkeys; type: in vivo, cynomologous monkeys
Text: as §1
Each animal was randomly assigned one eye for the experimental and the other for its control perfusion. The animals were fasted the night before the experiment. They were anesthetized intramusclarly with Methohexital Sodium 15 mg/kg and Pentobarbital Sodium 35 mg/kg. Supplemental anesthesia as required was carried out with Pentobarbital 10 mg/kg/hour. Needles were placed through the cornea into the anterior chamber and a two-step constant pressure perfusion method was performed in order to determine aqueous humor outflow facility. […]
Each vial of ethacrynic acid contained ethacrynate sodium powder equivalent to 50 mg of ethacrynic acid. […] The solution was mixed at room temperature until dissolved, and the pH was determined (always 7.2) before use; the solution was filtered with a 0.2 micron filter (Nuclepore); this produced a solution which was stable for twenty four hours. […]

intraocular pressure [3] = assay: Intraocular pressure after topical instillation in rabbits (Digilab Pneumotonometer); type: in vivo, Dutch-belted rabbits; details: 10 mM and 3% methylcellulose, twenty four hours after instillation, fourteen rabbits, changed from 23.0, p less than 0.001, control eye 22.9 to 24.2
Experimental: For rabbit experiments Dutch-belted rabbits of either sex weighing 1.5 to 2 kg were used for topical studies. Each animal was randomly assigned one eye for the experimental and the other for its control solution. Intraocular pressure was measured using a Digilab Pneumotonometer. Any animals showing asymmetry of intraocular pressure greater than 2 mm were excluded form the study.
The protocol was as follows. Baseline intraocular pressure was taken in each eye using 0.5% proparacaine hydrochloride for topical anesthesia. Then a 100 microliter drop of either control solution or ethacrynic acid dissolved in 3% methylcellulose was instilled into one of the two eyes. In a half hour this was repeated. Two hours later intraocular pressure was measured in each eye. In some animals intraocular pressure was also measured five hours later and all animals had measurement of intraocular pressure the following day.
Ethcrynic acid powder was dissolved in 3% methylcellulose to yield the desired concentration. The solution was mixed at room temperature for one hour and was stable for twenty four hours. A similar osmotically balanced control solution was prepared. […] The pH of the solution was determined by mixing one part of the control or experimental solution with five parts of distilled water. […]

[4] = type: physicochemical
Experimental: as §3
Ethcrynic acid powder was dissolved in 3% methylcellulose to yield the desired concentration. The solution was mixed at room temperature for one hour and was stable for twenty four hours. A similar osmotically balanced control solution was prepared. 3% methylcellulose was prepared as follows: methylcellulose powder (4000 CPS) was obtained from Dow company (lot number 14728). A 3% solution was prepared from powder dissolved in distilled water using low heat for several hours. The solution was refrigerated over night to yield a transparent, viscous fluid. The pH of the solution was determined by mixing one part of the control or experimental solution with five parts of distilled water. The pH ranged between 6.2 and 6.5 for both the control and experimental solutions. The 3% methylcellulose solution was refrigerated when not in use.

intraocular pressure [5] = assay: Intraocular pressure in monkeys a few days after perfusion; type: in vivo, cynomologous monkeys; details: both eyes
Experimental: as §2

Water solubility = type: physicochemical; details: volume not given

## CCN1C(=O)C=CC1=O [NEM, N-ethylmaleimide]
Calf eye
  dosage producing a significant increase in the facility of outflow: ≥ 4.7 mM
Monkey eye
  effect on outflow in the monkey eye: increase in outflow

## C=C(CC)C(=O)c1ccc(OCC(=O)O)c(Cl)c1Cl [ethacrynic acid, [2,3-dichloro-4-(2-methylene-1-oxobutyl)phenoxy] acetic acid]
Eye [1]; dosages above 0.25 mM
  pupil dilation in treated eye: some of the animals developed a dilated pupil
Eye [1]; experimental and control eyes, believed to result from perfusion technique
  adhesions of the iris to the peripheral cornea: A small number of animals in both the experimental and control eyes developed adhesions of the iris to the peripheral cornea
Eye [1]; monkey perfusion
  chronic corneal edema, opacities or cataract formation: no chronic corneal edema or opacities or cataract formation
  corneal or crystalline lens changes: no apparent corneal or crystalline lens changes
Eye [2]; 5 mM, topical
  conjunctival injection: slight conjunctival injection
Eye [2]; 10 mM, topical
  conjunctival injection and irritation: moderate conjunctival injection and signs of irritation
Eye [2]; higher concentrations (above 10 mM)
  reversibility of corneal toxicity and inflammation: resolved without apparent seguelae
Eye [2]; higher concentrations (above 10 mM), for several days
  corneal toxicity and anterior chamber inflammation: signs of corneal toxicity (corneal edema) and anterior chamber inflammation
Aqueous humor outflow; 0.25 mM final concentration
  outflow facility response: approximately half the animals perfused responded with a substantial increase in outflow facility
Aqueous humor outflow; lower dosages (below 0.25 mM; 0.1 mM tested)
  outflow facility effect: no effect
Intraocular pressure [3]
  intraocular pressure in treated eye, 24 h: 20.0 mmHg
[4]
  stability of solution: twenty four
[4]; pH 7.2
  stability of solution: twenty four
Intraocular pressure [5]
  intraocular pressure: symmetrical and normal in both eyes

## C=C(CC)C(=O)c1ccc(OCC(=O)O)c(Cl)c1Cl [sodium salt of ethacrynic acid]
Water solubility
  solubility in water: about 0.04 g

— patent US4757089A, “Increasing aqueous humor outflow” (Massachusetts Eye and Ear Infirmary, priority 1986, dated 1988)
